Assays:
Format in all cases: physicochemical
[1] = Hygroscopicity test by Dynamic Vapour Sorption (DVS); conditions: for Water uptake: 25° C.
Protocol: The apparatus is a “controlled atmosphere microbalance” where the weighed sample is exposed to programmed variations of the relative humidity (RH) at a constant and controlled temperature. The measured parameters (weight, time and RH), reported in Excel worksheets, allow obtaining hygroscopicity curves over the tested RH range. Sorption/desorption cycles between 0% and 90% RH can be performed at controlled temperature of 25° C. Progressive variations of RH are of 10%; they are operated by the software at the equilibration of the sample weight. This condition can be defined at a constant rate of percent weight variation e.g. 0.005%/min. The experimental results are reported both as in the DVS Isotherm Reports and Isotherm Plots.

[2] = Solid state stability on storage at stressed temperature and humidity; conditions: storage at 40° C./75% RH
[3] = Aqueous solubility of compound 937 salts and free base (excess solid stirred in water, filtered, HPLC); conditions: thermodynamic from solid, RT, stirred 4 hours, excess solid (target 10 mg/ml)
From the text: The obtained preparations have been filtered and analyzed by means of HPLC.

[4] = Solubility of compound 937 in early formulation vehicles / as in situ salt; conditions: aqueous with cosolvent or surfactant or cyclodextrin; in 10% polysorbate 80 in 5% dextrose solution

Question: Which “hygroscopicity (in words)” value [1] does the source give for `CN1CCN(c2ccc(OC(F)(F)F)c(Nc3ncc4c(n3)-c3c(c(C(N)=O)nn3CCO)CC4)c2)CC1.O=C(O)C[C@H](O)C(=O)O` [compound 937 L-malate salt] here?
Answer: moderately hygroscopic

Question: And the Water uptake ([1]; 90% RH)?
Answer: about 4.7%

Question: Which results are given for `CN1CCN(c2ccc(OC(F)(F)F)c(Nc3ncc4c(n3)-c3c(c(C(N)=O)nn3CCO)CC4)c2)CC1.O=C(O)C(O)C(O)C(=O)O` [compound 937 L-tartrate salt]?
Answer: hygroscopicity (in words) [1]: moderately hygroscopic; Water uptake ([1]; 90% RH): ~5.8%

Question: For `CN1CCN(c2ccc(OC(F)(F)F)c(Nc3ncc4c(n3)-c3c(c(C(N)=O)nn3CCO)CC4)c2)CC1.O=C(O)/C=C/C(=O)O` [compound 937 fumarate salt], which Water uptake ([1]; 90% RH) is on record?
Answer: 1.6%

Question: And the Water uptake ([1]; DVS sorption ramp, 0.0% RH)?
Answer: 0.0%

Question: And the Water uptake ([1]; DVS sorption ramp, 10.0% RH)?
Answer: 0.1%

Question: What about the Water uptake ([1]; DVS sorption ramp, 20.0% RH) of the same molecule?
Answer: 0.3%

Question: And the Water uptake ([1]; DVS sorption ramp, 30.0% RH)?
Answer: 0.4%

Question: What about the Water uptake ([1]; DVS sorption ramp, 40.0% RH) of the same molecule?
Answer: 0.6%

Question: And the Water uptake ([1]; DVS sorption ramp, 50.0% RH)?
Answer: 0.9%

Question: And the Water uptake ([1]; DVS sorption ramp, 60.0% RH)?
Answer: 1.2%

Question: What about the Water uptake ([1]; DVS sorption ramp, 70.0% RH) of the same molecule?
Answer: 1.4%

Question: And the Water uptake ([1]; DVS sorption ramp, 80.0% RH)?
Answer: 1.5%

Question: Which “solid form stability (in words)” value [2] does the source give for `CN1CCN(c2ccc(OC(F)(F)F)c(Nc3ncc4c(n3)-c3c(c(C(N)=O)nn3CCO)CC4)c2)CC1.O=C(O)/C=C\C(=O)O` [compound 937 maleate salt form II] here?
Answer: undergoes conversion to form I

Question: What about the “hygroscopicity (in words)” value [1] of the same molecule?
Answer: moderately hygroscopic

Question: For `CN1CCN(c2ccc(OC(F)(F)F)c(Nc3ncc4c(n3)-c3c(c(C(N)=O)nn3CCO)CC4)c2)CC1.O=C(O)CCC(=O)O` [compound 937 succinate salt form II], which “solid form stability (in words)” value [2] is on record?
Answer: stable

Question: Which solubility at 4 h [3] does the source give for `CN1CCN(c2ccc(OC(F)(F)F)c(Nc3ncc4c(n3)-c3c(c(C(N)=O)nn3CCO)CC4)c2)CC1` [compound 937, 1-(2-hydroxy-ethyl)-8-[5-(4-methyl-piperazin-1-yl)-2-trifluoromethoxy-phenylamino]-4,5-dihydro-1H-pyrazolo[4,3-h]quinazoline-3-carboxamide] here?
Answer: < 100 µg/mL

Question: What about the solubility [4] of the same molecule?
Answer: ~4000 µg/mL

From patent publication US8648078B2, “PLK inhibitor salts” (Nerviano Medical Sciences S.R.L., priority 2009, dated 2014)
